The record followed here is publication PMC4384654 (ChemMedChem, 2014).

Assay [1] deals with T1, FAAH prepared from rat brain homogenates (Rattus norvegicus, UniProt P97612).
T1 sequence (P97612 1-579): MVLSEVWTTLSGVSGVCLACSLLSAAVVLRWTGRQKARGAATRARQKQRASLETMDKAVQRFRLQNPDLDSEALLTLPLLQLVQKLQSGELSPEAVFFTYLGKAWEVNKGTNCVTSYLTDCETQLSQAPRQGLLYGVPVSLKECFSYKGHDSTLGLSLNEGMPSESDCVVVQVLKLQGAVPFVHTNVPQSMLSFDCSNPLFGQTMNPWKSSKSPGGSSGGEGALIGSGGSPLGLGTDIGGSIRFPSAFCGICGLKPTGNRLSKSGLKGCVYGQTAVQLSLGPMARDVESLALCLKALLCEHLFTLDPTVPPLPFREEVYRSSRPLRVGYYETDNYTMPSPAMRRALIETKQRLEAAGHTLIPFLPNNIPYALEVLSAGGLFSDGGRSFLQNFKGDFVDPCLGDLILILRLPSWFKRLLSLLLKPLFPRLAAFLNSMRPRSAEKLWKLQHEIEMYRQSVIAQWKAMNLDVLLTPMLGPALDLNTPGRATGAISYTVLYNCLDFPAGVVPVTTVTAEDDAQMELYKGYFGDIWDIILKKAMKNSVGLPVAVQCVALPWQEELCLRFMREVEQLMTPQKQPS
The experiment in a line: In vitro rat FAAH radiometric assay. The assay is classed as biochemical. As to conditions: for IC50: read-out: r-FAAH IC50; for IC50 / % inhibition of FAAH activity at 100 μM: rat brain homogenate; for Increase in potency vs 34a: relative to 34a.

A further assay has as its target T2, human FAAH-1 (Homo sapiens, UniProt O00519).
T2 sequence (O00519 1-579): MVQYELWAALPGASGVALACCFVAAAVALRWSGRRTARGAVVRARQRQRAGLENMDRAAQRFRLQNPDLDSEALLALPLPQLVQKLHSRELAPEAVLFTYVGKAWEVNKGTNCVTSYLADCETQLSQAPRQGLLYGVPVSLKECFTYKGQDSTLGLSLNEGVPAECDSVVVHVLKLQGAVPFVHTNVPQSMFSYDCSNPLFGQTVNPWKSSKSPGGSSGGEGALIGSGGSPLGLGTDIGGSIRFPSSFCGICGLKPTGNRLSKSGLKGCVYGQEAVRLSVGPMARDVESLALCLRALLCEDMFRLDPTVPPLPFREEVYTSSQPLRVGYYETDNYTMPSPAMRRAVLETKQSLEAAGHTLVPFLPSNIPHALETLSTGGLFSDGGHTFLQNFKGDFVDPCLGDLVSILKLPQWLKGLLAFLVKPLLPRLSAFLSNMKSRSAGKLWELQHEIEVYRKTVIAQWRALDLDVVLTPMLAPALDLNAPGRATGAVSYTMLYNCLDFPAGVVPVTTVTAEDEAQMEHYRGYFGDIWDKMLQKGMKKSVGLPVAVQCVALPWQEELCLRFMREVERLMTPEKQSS
The experiment in a line: In vitro human FAAH fluorescent assay. Format: biochemical. As to conditions: h-FAAH-1 IC50 relative to r-FAAH IC50.

Values joined by “and” are separate entries in the source; they are usually repeats but may differ in a detail not shown here. Identical values can stand only once. Like-named read-outs stand apart in the source and are kept apart here.

In general, inhibition refers to the share of the control response that was lost under treatment. For `O=C(NC1CCCCC1)OCc1cccc(-c2ccccc2)c1` [Compound 4, (3-phenylphenyl)methyl N-cyclohexylcarbamate], the inhibition at 100 µM in assay [1] (read-out: % inhibition of FAAH activity at 100 μM) worked out at 65%. As usually defined, the IC50 is the midpoint of a concentration-inhibition curve. For the compound `O=C(NC1CCCCC1)OCc1cn(-c2ccccc2)nn1` [Compound 17, (1-phenyltriazol-4-yl)methyl N-cyclohexylcarbamate], in assay [1] (mean ± SEM (n=3)), the IC50 turned out to be 381 nM. On to `O=C(NC1CCCCC1)OCc1cn(Cc2ccccc2)nn1` [Compound 18, (1-benzyltriazol-4-yl)methyl N-cyclohexylcarbamate], for which the “Less potent than 1a (URB524)” value in assay [1] (r-FAAH, relative to 1a) is reported as 4.6 fold. Also, the “Increase in potency vs compound 17” value in assay [1] (r-FAAH, relative to 17) was “ca. 15 fold”. In assay [1] (mean ± SEM (n=3)), the IC50 was 26 nM and 26.2 nM. In the case of `O=C(NC1CCCCC1)OCc1cn(CCc2ccccc2)nn1` [Compound 19, (1-phenethyltriazol-4-yl)methyl N-cyclohexylcarbamate], the IC50 in assay [1] (mean ± SEM (n=3)) was 833 ± 129 nM. Take `O=C(NC1CCCCC1)OCc1cn(C(c2ccccc2)c2ccccc2)nn1` [Compound 20, (1-benzhydryltriazol-4-yl)methyl N-cyclohexylcarbamate]: in assay [1], the “% inhibition of FAAH activity at 100 μM” value was determined as 73% @ 100 μM.

As for `O=C(NC1CCCCC1)OCc1cn(Cc2ccc3ccccc3c2)nn1` [Compound 21, [1-(2-naphthylmethyl)triazol-4-yl]methyl N-cyclohexylcarbamate], the values for the IC50 in assay [1] and in assay [1] (mean ± SEM (n=3)) were 2000 nM and 2000 ± 636 nM, respectively. For `N#Cc1ccccc1Cn1cc(COC(=O)NC2CCCCC2)nn1` [Compound 22a, [1-[(2-cyanophenyl)methyl]triazol-4-yl]methyl N-cyclohexylcarbamate], the IC50 in assay [1] (mean ± SEM (n=3)) was found to be 19.5 ± 4.3 nM.

Turning to `N#Cc1cccc(Cn2cc(COC(=O)NC3CCCCC3)nn2)c1` [Compound 22b, [1-[(3-cyanophenyl)methyl]triazol-4-yl]methyl N-cyclohexylcarbamate], the IC50 in assay [1] (mean ± SEM (n=3)) came to 21.5 ± 7.9 nM. On the same count and under the same terms, next, `N#Cc1ccc(Cn2cc(COC(=O)NC3CCCCC3)nn2)cc1` [Compound 22c, [1-[(4-cyanophenyl)methyl]triazol-4-yl]methyl N-cyclohexylcarbamate]: 2280 ± 585 nM.

Take `O=C(NC1CCCCC1)OCc1cn(Cc2ccccc2F)nn1` [Compound 23a, [1-[(2-fluorophenyl)methyl]triazol-4-yl]methyl N-cyclohexylcarbamate]: the IC50 in assay [1] (mean ± SEM (n=3)) came out at 9.9 ± 1.9 nM. Also, on human FAAH-1, the “Loss of potency on h-FAAH-1 vs r-FAAH” value was 62 fold.

With `O=C(NC1CCCCC1)OCc1cn(Cc2cccc(F)c2)nn1` [Compound 23b, [1-[(3-fluorophenyl)methyl]triazol-4-yl]methyl N-cyclohexylcarbamate], the IC50 in assay [1] (mean ± SEM (n=3)) was found to be 12.1 ± 0.8 nM. The same measure, in the same setting: next, `O=C(NC1CCCCC1)OCc1cn(Cc2ccc(F)cc2)nn1` [Compound 23c, [1-[(4-fluorophenyl)methyl]triazol-4-yl]methyl N-cyclohexylcarbamate]: 95.5 ± 22.2 nM. For the compound `O=C(NC1CCCCC1)OCc1cn(Cc2ccccc2Cl)nn1` [Compound 24a, [1-[(2-chlorophenyl)methyl]triazol-4-yl]methyl N-cyclohexylcarbamate], the IC50 in assay [1] (mean ± SEM (n=3)) turned out to be 6.2 ± 1.3 nM. For the same compound, the “Loss of potency on h-FAAH-1 vs r-FAAH” value at human FAAH-1 is listed as 172 fold. `O=C(NC1CCCCC1)OCc1cn(Cc2cccc(Cl)c2)nn1` [Compound 24b, [1-[(3-chlorophenyl)methyl]triazol-4-yl]methyl N-cyclohexylcarbamate]: the IC50 in assay [1] (mean ± SEM (n=3)) is 13.2 ± 2.8 nM. The same measure, in the same setting: next, `O=C(NC1CCCCC1)OCc1cn(Cc2ccc(Cl)cc2)nn1` [Compound 24c, [1-[(4-chlorophenyl)methyl]triazol-4-yl]methyl N-cyclohexylcarbamate]: 215 ± 31 nM; `Cc1ccccc1Cn1cc(COC(=O)NC2CCCCC2)nn1` [Compound 25a, [1-(o-tolylmethyl)triazol-4-yl]methyl N-cyclohexylcarbamate]: 21.5 ± 1.2 nM; `Cc1cccc(Cn2cc(COC(=O)NC3CCCCC3)nn2)c1` [Compound 25b, [1-(m-tolylmethyl)triazol-4-yl]methyl N-cyclohexylcarbamate]: 24.5 ± 6.2 nM. Same read-out and setting: to `Cc1ccc(Cn2cc(COC(=O)NC3CCCCC3)nn2)cc1` [Compound 25c, [1-(p-tolylmethyl)triazol-4-yl]methyl N-cyclohexylcarbamate] belongs 500 ± 44 nM.

As for `COc1ccccc1Cn1cc(COC(=O)NC2CCCCC2)nn1` [Compound 26a, [1-[(2-methoxyphenyl)methyl]triazol-4-yl]methyl N-cyclohexylcarbamate], in assay [1] (mean ± SEM (n=3)), the IC50 came out at 1.4 ± 0.2 nM. In addition, the “Loss of potency on h-FAAH-1 vs r-FAAH” value on human FAAH-1 stood at 240 fold. For the compound `COc1cccc(Cn2cc(COC(=O)NC3CCCCC3)nn2)c1` [Compound 26b, [1-[(3-methoxyphenyl)methyl]triazol-4-yl]methyl N-cyclohexylcarbamate], the IC50 in assay [1] (mean ± SEM (n=3)) was 11.8 ± 3.7 nM. `COc1ccc(Cn2cc(COC(=O)NC3CCCCC3)nn2)cc1` [Compound 26c, [1-[(4-methoxyphenyl)methyl]triazol-4-yl]methyl N-cyclohexylcarbamate]: the IC50 in assay [1] (mean ± SEM (n=3)) came out at 627 ± 173 nM. Same read-out and setting: to `O=C(NC1CCCCC1)OCc1cn(Cc2c(F)cccc2F)nn1` [Compound 28, [1-[(2,6-difluorophenyl)methyl]triazol-4-yl]methyl N-cyclohexylcarbamate] belongs 11.9 ± 1 nM.

In the case of `O=C(NC1CCCCC1)OCc1cn(Cc2cc(F)cc(F)c2)nn1` [Compound 29, [1-[(3,5-difluorophenyl)methyl]triazol-4-yl]methyl N-cyclohexylcarbamate], in assay [1] (mean ± SEM (n=3)), the IC50 was found to be 10.4 ± 2.6 nM. On the same count and under the same terms, next, `COc1cccc(Cn2cc(COC(=O)NC3CCCCC3)nn2)c1F` [Compound 30, [1-[(2-fluoro-3-methoxy-phenyl)methyl]triazol-4-yl]methyl N-cyclohexylcarbamate]: 44.6 ± 10.3 nM. With `O=C(NC1CCCCC1)OCCc1cn(-c2ccccc2)nn1` [Compound 32, 2-(1-phenyltriazol-4-yl)ethyl N-cyclohexylcarbamate], in assay [1] (r-FAAH, relative to 17), the “Decrease in potency vs compound 17” value is given as “ca. 3 fold”. In assay [1] (mean ± SEM (n=3)), the IC50 was 1280 ± 84 nM. `O=C(NC1CCCCC1)OCCc1cn(Cc2ccccc2)nn1` [Compound 33, 2-(1-benzyltriazol-4-yl)ethyl N-cyclohexylcarbamate]: the IC50 in assay [1] (mean ± SEM (n=3)) is 2540 ± 106 nM. On the same count and under the same terms, next, `COc1ccccc1Cn1cc(CNC(=O)OCc2cn(Cc3ccccc3OC)nn2)nn1` [Compound 34a, [1-[(2-methoxyphenyl)methyl]triazol-4-yl]methyl N-[[1-[(2-methoxyphenyl)methyl]triazol-4-yl]methyl]carbamate]: 154 ± 14 nM. On to `COc1cccc(Cn2cc(CNC(=O)OCc3cn(Cc4ccccc4OC)nn3)nn2)c1` [Compound 37, [1-[(2-methoxyphenyl)methyl]triazol-4-yl]methyl N-[[1-[(3-methoxyphenyl)methyl]triazol-4-yl]methyl]carbamate], for which, in assay [1] (r-FAAH), the “Increase in potency vs 34a” value was found to be 48 fold. For the same compound, the IC50 in assay [1] (mean ± SEM (n=3)) was 3.2 ± 1.2 nM. Further, on human FAAH-1, the “Loss of potency on h-FAAH-1 vs r-FAAH” value lay within 4 to 10 fold.

As to `COc1ccc(Cn2cc(CNC(=O)OCc3cn(Cc4ccccc4OC)nn3)nn2)cc1` [Compound 38, [1-[(2-methoxyphenyl)methyl]triazol-4-yl]methyl N-[[1-[(4-methoxyphenyl)methyl]triazol-4-yl]methyl]carbamate], in assay [1] (mean ± SEM (n=3)), the IC50 was 7.6 ± 0.6 nM. Also, at human FAAH-1, the “Loss of potency on h-FAAH-1 vs r-FAAH” value is listed as 4 to 10 fold. Take `COc1cccc(Cn2cc(COC(=O)NCc3cn(Cc4ccccc4OC)nn3)nn2)c1` [Compound 39, [1-[(3-methoxyphenyl)methyl]triazol-4-yl]methyl N-[[1-[(2-methoxyphenyl)methyl]triazol-4-yl]methyl]carbamate]: the “Increase in potency vs 34a” value in assay [1] (r-FAAH) is given as “ca. 15 fold”. In addition, in assay [1] (mean ± SEM (n=3)), the IC50 turned out to be 9.8 ± 0.4 nM. The “Loss of potency on h-FAAH-1 vs r-FAAH” value on human FAAH-1 is 4 to 10 fold. With `O=C(NC1CCCCC1)OCc1ncn(-c2ccccc2)n1` [Compound 43], the “% inhibition of FAAH activity at 100 μM” value in assay [1] worked out at 70% @ 100 μM.

Regarding `O=C(NC1CCCCC1)OCc1ncn(Cc2ccccc2)n1` [Compound 46], the IC50 in assay [1] (mean ± SEM (n=3)) stood at 51500 ± 1120 nM.
